Source: paper PMC4129416, “YLT192, a Novel, Orally Active Bioavailable Inhibitor of VEGFR2 Signaling with Potent Antiangiogenic Activity and Antitumor Efficacy in Preclinical Models” (Scientific Reports, 2014)

What was measured:
VEGFR2 = VEGFR2 (Homo sapiens, UniProt P35968); assay: Cellular thermal shift assay (target engagement) in intact HUVECs; assay type: binding; design: stabilize the target in intact HUVECs; endogenous in cells; host or cells: primary HUVECs (passages 3-8); settings: 40 μM, 3 h, 40-49°C
VEGFR2, sequence (P35968 20-1356): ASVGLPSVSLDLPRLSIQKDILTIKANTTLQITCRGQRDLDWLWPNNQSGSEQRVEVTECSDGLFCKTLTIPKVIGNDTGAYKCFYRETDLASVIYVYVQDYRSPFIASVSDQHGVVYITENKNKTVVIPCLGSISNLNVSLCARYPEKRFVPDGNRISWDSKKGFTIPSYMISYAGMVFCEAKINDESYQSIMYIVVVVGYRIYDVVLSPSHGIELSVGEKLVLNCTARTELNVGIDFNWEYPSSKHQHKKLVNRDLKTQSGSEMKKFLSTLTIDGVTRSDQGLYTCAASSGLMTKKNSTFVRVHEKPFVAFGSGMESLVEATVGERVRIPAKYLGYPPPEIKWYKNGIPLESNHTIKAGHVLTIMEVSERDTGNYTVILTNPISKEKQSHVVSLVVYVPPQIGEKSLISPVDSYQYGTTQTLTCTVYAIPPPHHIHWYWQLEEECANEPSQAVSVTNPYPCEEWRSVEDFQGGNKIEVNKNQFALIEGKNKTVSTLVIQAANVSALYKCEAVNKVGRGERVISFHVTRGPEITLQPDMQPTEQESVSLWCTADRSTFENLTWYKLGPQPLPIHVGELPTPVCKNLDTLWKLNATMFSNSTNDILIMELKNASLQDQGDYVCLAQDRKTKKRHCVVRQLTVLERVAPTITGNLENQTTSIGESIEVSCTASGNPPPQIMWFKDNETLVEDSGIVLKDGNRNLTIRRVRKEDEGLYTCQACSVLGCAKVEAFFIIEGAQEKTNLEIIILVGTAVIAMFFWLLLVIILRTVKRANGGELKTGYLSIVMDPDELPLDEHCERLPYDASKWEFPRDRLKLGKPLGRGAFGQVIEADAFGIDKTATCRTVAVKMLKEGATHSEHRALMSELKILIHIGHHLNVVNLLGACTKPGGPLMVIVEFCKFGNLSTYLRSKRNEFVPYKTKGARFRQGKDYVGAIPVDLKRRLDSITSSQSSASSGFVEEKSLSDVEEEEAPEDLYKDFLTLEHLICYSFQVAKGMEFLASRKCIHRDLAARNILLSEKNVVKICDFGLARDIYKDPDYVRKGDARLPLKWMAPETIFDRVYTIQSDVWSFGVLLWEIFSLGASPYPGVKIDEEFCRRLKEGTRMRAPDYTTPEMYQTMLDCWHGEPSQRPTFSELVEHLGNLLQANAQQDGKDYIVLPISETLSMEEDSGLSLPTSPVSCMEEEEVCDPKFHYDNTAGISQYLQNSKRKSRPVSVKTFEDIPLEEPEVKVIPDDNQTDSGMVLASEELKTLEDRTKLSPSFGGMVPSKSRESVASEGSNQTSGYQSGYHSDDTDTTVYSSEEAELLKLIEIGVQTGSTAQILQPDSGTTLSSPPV
Description: Then we investigate whether YLT192 bind to VEGFR2 in intact HUVECs. If VEGFR2 is bound by YLT192, it will be stabilized by the physical engagement.
The ability of YLT192 to interact with, and thereby stabilize the target in intact HUVECs, was evaluated as described by Molina et al.[22] with some modifications. Briefly, subconfluent HUVECs were incubated with 40 μM YLT192 or vehicle for 3 h. Then the cells were detached with trypsin and collected in TBS containing complete protease inhibitor cocktail. The cells were divided into 4 aliquots and heated individually at 40, 43, 46, 49°C for 3 minutes. Subsequently, the cell suspensions were freeze-thawed three times using liquid nitrogen. Soluble proteins were separated from the precipitated fraction by centrifugation at 17,000 g for 20 min. The proteins were then detected with immunoblot analysis using the VEGFR2-antibody.

HUVEC [1] = assay: EdU incorporation assay, VEGF165-stimulated HUVEC; assay type: cell-based, human
Description: (§1) The inhibition effect of YLT192 on VEGF165-stimulated HUVEC growth was examined using MTT assay.
EdU is a thymidine analogue used to label proliferating cells which can incorporate into replication DNA when cells are dividing. Cells growing in 96-well plates were treated with different concentrations of YLT192 for 24 hours, and then assayed with Cell-Light™ EdU DNA Cell Proliferation Kit according to the manufacture's instructions. Each assay was replicated 3 times.
Supplementary Figure S2. YLT192 inhibited VEGF-stimulated HUVECs proliferation in the EdU incorporation assay. The EdU-positive(red ﬂuorescent staining) cells and Hoechst staining(blue ﬂuorescent staining) cells represented proliferating and total cells, respectively(100×). Quantification was shown on the right panels. Data represent the mean ± SEM of three different experiments. Each experiment was performed in duplicate. *P<0.05, **P<0.01. […]

HUVEC [2] = assay: VEGF165-stimulated HUVEC growth, MTT assay; assay type: cell-based; settings: Homo sapiens, induced by VEGF165 (50 ng/mL), read-out: IC50, HUVEC proliferation
Description: as §1

Structure (SMILES): CNC(=O)c1cc(Oc2ccc(NC(=O)c3cccc(OC)c3)cc2)ccn1 [YLT192]
- thermal stabilization of VEGFR2 (VEGFR2): efficiently stabilized VEGFR2
- VEGF165-stimulated HUVEC proliferation, EdU incorporation (HUVEC [1]): inhibited VEGF165-stimulated HUVEC proliferation
- IC50 (HUVEC [2]): 2300 nM
